Measurements reported in patent publication US20110195974A1, “METHODS OF TREATING INFLAMMATORY CONDITIONS WITH ADRENERGIC ANTAGONISTS” (priority 2007, published 2011).
“Also recorded” adds a separate entry of the source. Where a name gives a salt, the structure may show the parent alone. Values belong to the compound of their own block, whether it stands above or below them.

Tests used:
TNFα = experiment: Whole blood assay: inhibition of LPS-induced TNFα release (TNF ELISA); type: cell-based, human; conditions: for effect on TNF production or release (in words) / inhibition of TNF production at the upper range of the dose curve: 25% whole blood diluted in plasmalyte
Protocol: […]. […] The experiment was conducted at least 2 times in duplicates and the fitted representation above consists of the average of those experiments. The IC50 values were calculated using logistic analysis on Origin Software.
FIG. 4 illustrates a graph showing the inhibition of release of TNF α by terbutaline and salbutamol. This assay evaluated the inhibition of TNF production by salbutamol and terbutaline using the whole blood assay. This method utilized an LPS induction at 10 μg/ml in 25% whole blood diluted in plasmalyte. […] Higher doses were not evaluated because the equivalent mg/kg doses would be too high, therefore, limiting their practical use under therapeutic conditions. IC50 values were not calculated. […] The data and the fit were calculated using Origin Software.
FIG. 5 illustrates a graph showing the inhibition of TNF production by butoxamine, and induction of TNF release by atenolol and metoprolol. […].
This assay measured prazosin alone, and the combination of: prasozin/butoxamine, prasozin/butoxamine/terbutaline, prasozin/butoxamine/salbutamol, and prazosin/salbutamol. […].
We collected whole human blood in a polypropylene tube. Containing a final concentration of 10 units of heparin per ml of blood using gravity flow with 19-gauge needle. To prevent non-specific activation of cells, we used the blood within 30 minutes of draw. The blood was diluted with plasmalyte to 50%, 40%, 30%, 20%, and 10% concentrations. In a matrix based assay set up, each blood dilution was treated with various concentrations of LPS dosages ranging from 60 μg/ml, 10 μg/ml, 6 μg/ml, 1 μg/ml, 0.6 μg/ml, 0.1 μg/ml, and 0.06 μg/ml. The LPS treated blood was incubated at 37 degree in an incubator with continues rotation. Following the incubation, the blood was centrifuged and the plasma was evaluated for TNF quantification using the ELISA assay (BD Biosciences, Los Angeles, Calif.).
We initially tested the ability of LPS to produce TNF from monocytes, by adding various dilutions of LPS (60 μg, 10 μg, 6 μg, 1 μg, 0.6 μg, 0.1 μg, 0.06 μg) per ml of diluted blood (blood dilutions 50%, 40%, 20%, 10%, and 5%). Blood dilutions were made in the clinically relevant buffer “plasmalyte”. LPS treated blood was incubated at 37° C. for 2 hr. Following incubation, we separated the plasma samples by centrifugation. We evaluated the samples using TNF-ELISA. […] Relying on FIG. 1, we conducted a blood dilution curve with 10 μg/ml LPS (FIG. 2). Based on interpretation of FIGS. 1 and 2, we concluded that blood dilution of 20-25% would be ideal at an LPS dose of 10 μg/ml. Based on the FIG. 2 data, we found LPS causes a near linear increase of TNF production in 20% blood. […] If there is too much blood, there will be heavy concentrations of TNF production, exceeding the detection levels of the assay. Using this optimization data, we created a fixed method to measure the inhibition of TNF production or release with various drugs and drug combinations.
Blood was drawn from thirteen independent donors under an IRB approved protocol. […] The blood samples were spun and plasma evaluated for TNF production using TNF ELISA from BD Biosciences. […]. […] It could also provide a possible treatment for rheumatoid arthritis. […]

arthritis [1] = conditions: cited from earlier work; for inhibition of inflammation in an arthritis model: in vivo
[2] = CIA mice, same experimental protocol; cited from earlier work
knee and ankle joints = experiment: Histology of knee and ankle joints after CIA; conditions: CIA mice
[3] = Body weight in mouse CIA model (gross measure of drug toxicity); conditions: CIA mice, days 18-35
[4] = system: collagen induced arthritis; conditions: cited from earlier work
arthritis [5] = conditions: rat arthritis model; cited from earlier work

Compound: COc1ccc(OC)c(C(O)C(C)NC(C)(C)C)c1 (racemic) [Butoxamine, DL-erythro-α-(2,5-dimethoxyphenyl)-β-t-butyl aminopropanol hydrochloride]
effect on TNF production or release (in words) (TNFα; LPS 10 μg/ml): very little inhibition if at all
inhibition of TNF production at the upper range of the dose curve (TNFα; LPS 10 μg/ml): ≤ 20%
inhibition of arthritis in animals (in words) (arthritis [1]; previous reports): potent inhibitor of arthritis in animals

Compound: Enbrel
body weight change, historical Enbrel data [2]: essentially unchanged

Compound: COc1cc2nc(N3CCN(C(=O)c4ccco4)CC3)nc(N)c2cc1OC [Prazosin, prazosin]
drug concentration at which TNF activity is inhibited (TNFα; LPS 10 μg/ml, 25% blood diluted in plasmalyte): 20 µg/mL
effect on TNF production or release (in words) (TNFα; LPS 10 μg/ml): lowest IC50
inhibition of TNF production at the upper range of the dose curve (TNFα; LPS 10 μg/ml): ~100%
inhibition of TNF at the upper range of the dose curve, thirteen donors (TNFα; blood of thirteen independent donors, 37 degrees, 2 hours): ~100%
joint histology (Toluidine blue) (knee and ankle joints): prevents inflammation, bone and cartilage destruction, pannus formation and bone erosion
body weight change [3]: weight remained constant
body weight change ([3]; listed as NM2014): essentially unchanged

Compound: CC(C)(C)NCC(O)c1ccc(O)c(CO)c1 (stereo not shown) [Salbutamol, salbutamol]
inhibition of inflammation in an arthritis model (arthritis [1]): 50%
severity of collagen-induced arthritis (in words) ([4]; mouse, in vivo): reduces the severity of collagen-induced arthritis

Compound: Cc1ccc(N(CC2=NCCN2)c2cccc(O)c2)cc1 [Phentolamine, phentolamine]
effect on TNF production or release (in words) (TNFα; LPS 10 μg/ml): does not have the same level of inhibition as prazosin and yohimbine alone

Compound: CC(C)(C)NCC(O)c1cc(O)cc(O)c1 (stereo not shown) [Terbutaline, terbutaline]
effect on TNF production or release (in words) (TNFα; LPS 10 μg/ml): minimal effect
inhibition of inflammation in an arthritis model (arthritis [1]): 50%
reduction of disease severity (arthritis [5]): 50%
benefit in collagen induced arthritis ([4]; mice): 50%

Compound: COCCc1ccc(OCC(O)CNC(C)C)cc1 (stereo not shown) [Metoprolol, metoprolol]
effect on TNF production or release (in words) (TNFα; LPS 10 μg/ml): significant elevation in the TNF response; also recorded: activators of TNF release

Compound: CC(C)NCC(O)COc1ccc(CC(N)=O)cc1 (stereo not shown) [Atenolol, atenolol]
effect on TNF production or release (in words) (TNFα; LPS 10 μg/ml): significant elevation in the TNF response; also recorded: activators of TNF release

IC50 (TNFα; Homo sapiens, LPS 10 μg/ml, 25% blood diluted in plasmalyte, 37° C. 2 h): 70 to 100 µg/mL
Compound: COC(=O)[C@@H]1[C@H]2C[C@H]3c4[nH]c5ccccc5c4CCN3C[C@@H]2CC[C@@H]1O [Yohimbine, yohimbine]
inhibition of TNF production at the upper range of the dose curve (TNFα; LPS 10 μg/ml): 80%
